Reference: patent US7812142B2, “Pentose derivatives as anti-hyperglycemic drugs” (Yissum Research Development Company of the Hebrew …, priority 2002, dated 2010)

Experiments:
C2 myotubes = experiment: dGlc uptake assay in C2 myotubes; format: cell-based, mouse
Description: The time-course of D-xylose effect in two types of skeletal muscle cells (L8 myocytes and C2 myotubes) was studied. L8 myocytes and C2 myotubes preconditioned in 20 mM glucose were incubated with 20 mM xylose. After 90 min the cells were washed and incubated with 20 mM glucose, and subjected to a deoxyglucose dGlc uptake assay (14).
The inventors have also measured the effect of different doses of D-xylose in C2 myotubes. C2 myotubes preconditioned with 20 mM glucose received fresh medium containing 20 mM glucose or increasing concentrations of D-xylose. Standard dGlc uptake assay was performed after 1 hr incubation. […] D-xylose augmented the rate of hexose transport ˜2-fold within 1-2 hr; half-maximal stimulation was observed within 20-30 min, as shown in FIG. 2.
However, in the above experiments the cells were exposed to D-xylose after removal of the conditioning glucose concentration. […] The inventors therefore added 20 mM D-xylose to C2 myotubes in the presence of 8 or 16 mM glucose and followed its effect.
It has shown before by the inventors of the present invention that deoxyglucose (dGlc) depresses the hexose transport system in myocytes and that a subsequent incubation with low (even no) glucose fails to reverse this effect of dGlc [Sasson, S et al (1997)]. The inventors have therefore measured the effect of D-xylose on rate of hexose transport following treatment with dGlc. In one experiment, C2 myotubes preconditioned with 2 mM glucose received fresh medium containing 2 mM dGlc. A portion of the cells were washed after 30 min and received 20 MM D-xylose or 2 mM D-glucose, and subjected to a dGlc uptake assay at different time points. In another experiment, L8 myocytes preconditioned with 2 mM glucose were washed and incubated with 2 mM xylose or 2 mM dGlc. A portion of the cells were washed again after 2 hr and incubated with 20 mM xylose, and subjected to a dGlc uptake assay at different time points.
(§1) Uptake assay of the tritiated glucose analogue, 2-deoxy-D-glucose, is routinely performed as described in [Sasson, S. and Cerasi, E. (1986) J. Biol. Chem. 261, 16827-16833].

L6 myotubes = experiment: dGlc uptake assay in L6 myotubes; format: cell-based, rat; conditions: 60 μM inhibitor, 23.0 mM glucose (FIG. 11A); EH-40 data not shown
Description: FIG. 10: Western blot depicting effect of 3-O-propyl-D-xylose (EH-114), and 1,3-O-dimethylxylopyranoside (EH-101) on the total cell content and plasma membrane abundance of GLUT-4 in the absence or presence of insulin. L6 myotubes were maintained for 48 hr at 23 mM Glucose. The cells were than washed and received fresh medium containing the indicated additions and incubated for additional […]. Insulin was added during the last 30 min of incubation before the dGlc uptake assay.
FIG. 11A: Effect of LY-249002, a PI3-kinase inhibitor, on insulin, D-xylose, EH-101 and EH-114-mediated glucose uptake. L6 myotubes were treated as described in the legend to FIG. 10. The glucose concentration in the culture medium was 23.0 mM. The concentration of LY-294002 was 60 μM. At the end of incubation the cells were taken for the standard dGlc uptake assay. Mean±SEM, n=3.
GLUT-1 and GLUT-4 mediate glucose entry into L6 myotubes. It is established that GLUT-4 is translocated effectively and rapidly to the plasma membrane upon insulin treatment. The inventors looked at the effect of 3-O-propyl-D-xylose EH-114) and 1,3-O-dimethylxylopyranoside (EH-101) on the total cell content and plasma membrane abundance of these transporters in the absence or presence of insulin. L6 myotubes were maintained at 5.0 or 23.0 mM glucose for 48 hr and EH-114 and EH-101 were present during the last 24 hr. The cells were then taken for the standard [^3H]-2-deoxy-D-glucose uptake assay and for the biotinylation procedure for determining the amount of GLUT-1 and GLUT-4 in the plasma membrane. High glucose levels decreased the hexose transport rate by ˜50%. Insulin augmented the transport nearly 2-fold in both cases. EH-114 and EH-101 increased the transport rate 2-3-fold in the absence of insulin. Together with insulin the uptake rate was increased nearly 3-fold.
The inventors also tested the hypothesis that the active D-xylose derivatives augment the hexose transport capacity in L6 myotubes by translocating GLUT-4 to the plasma membrane not via the common insulin-regulated pathway. For this experiment, a selective inhibitor of the enzyme PI3-kinase, LY-249002, which is a key enzyme in the cellular transduction mechanism of insulin, was utilized. […] These findings also agree well with the longer onset of action of these derivatives as compared to the rapid action of insulin. Similar results were obtained when LY-249002 was present together with the derivatives throughout the entire incubation period.
as §1

PKB = PKB phosphorylation immunoblot in L6 myotubes; format: cell-based, rat; conditions: 23.0 mM glucose; 100 nM insulin, 20 mM xylose, 5 mM EH-114 or 250 μM EH-40, up to 24 hrs (FIG. 11B)
Description: FIG. 11B: Effects of insulin D-xylose and xylose derivatives on PKB phosphorylation. L6 myotubes were maintained at 5.5 mM or 23.0 mM glucose. The latter were treated with 100 nM insulin, 20 mM xylose, 5 mM EH-114 or 250 μM EH-40 up to 24 hrs. At the indicated times treated myotubes were collected, homogenized and lysed and the soluble protein fraction was isolated. The control myotubes were collected at the end of the 24 hr incubation period. Equal amounts of proteins of the various treated myotubes were separated on SDS-PAGE and immunoblotted with a specific antibody against phospho-Axt1/PKBα (Ser473). In order to test whether xylose derivative activate insulin transduction elements downstream of PI3K, the inventors tested the state of PKB phosphorylation, as shown in FIG. 11B.

glucose transporter = experiment: Non-radioactive fluorimetric dGlc-6-P uptake assay with 10 mM dGlc; format: cell-based; conditions: 10 mM dGlc in the uptake assay
Description: Since the standard hexose transport assay utilizes 0.1 mM dGlc in the presence of tracer amount of [^3H] dGlc, the inventors asked whether the results shown above were limited to this particular assay condition. Therefore, experiments were repeated with 10 mM dGlc in the uptake assay. […] The uptake of hexose under these assay conditions was also linear up to 25 min.

effect of PI3-kinase inhibitor LY-249002 on the substance's stimulation of hexose transport (L6 myotubes): failed to affect
SMILES: O=C[C@H](O)[C@@H](O)[C@H](O)CO [D-xylose]
time to half-maximal stimulation (C2 myotubes): 20 to 30 min | rate of hexose transport downregulated by dGlc (C2 myotubes; 20 mM D-xylose after 30 min 2 mM dGlc (FIG. 4A)): increased the rate of hexose transport | hexose transport in the presence of glucose (C2 myotubes; 20 mM D-xylose with 8 or 16 mM glucose (FIG. 3)): augment hexose transport | effect of pentoses on the rate of hexose transport (C2 myotubes; 20 mM pentose, preconditioned with 20 mM glucose (FIG. 7)): most effective pentose | rate of glucose transport (C2 myotubes; 20 mM xylose, cells preconditioned in 20 mM glucose (FIG. 1)): increases the rate of glucose transport | concentration at which maximal effect is obtained (C2 myotubes; dose-response, 1 hr incubation, preconditioned with 20 mM glucose (FIG. 2)): 20 mM | augmentation of the rate of hexose transport (C2 myotubes; within 1-2 hr): ~2 fold | PKB phosphorylation (PKB): failed to induce significant phosphorylation | competition for transport at high hexose level (glucose transporter): does not compete for transport via the glucose transporter
